Experimental findings from ChEMBL document CHEMBL6071182, “Design, Biological Characterization, and Discovery of Novel Cyclohexenyl Derivatives as Kinesin KIF18A Inhibitors for the Treatment of Ovarian Cancer” (ACS Med Chem Lett, 2024) are described below.

A word on the EC50: it is the concentration at which the effect is half-maximal. A lower EC50 goes with greater potency. For orientation: half-life means the time needed for the level to fall by half in the phase considered. A higher half-life goes with slow decline. What is called AUC(0-t) is exposure summed from dosing to a finite time, without extrapolation to infinity. Low readings indicate low exposure, high ones high exposure. One may read the bioavailability as the share of a dose that reaches the circulation, judged against a reference dose that is usually intravenous. A low value points to little systemic uptake. The term Cmax denotes the peak of the concentration-time curve.

The nature of data set [1]: cells. Particulars: Homo sapiens, OVCAR-3, 96 h.
Description: Antiproliferative activity against KIF18A siRNA sensitive human OVCAR-3 cells assessed as decrease in nuclei number measured after 4 days incubation by Hoechst 33342 DNA dye based nuclear count assay (NCA)
A short description of data set [2]: Half life in Sprague-Dawley rat at 2 mg/kg, po and 1 mg/kg, iv. The format is ADME, organism-based. Conditions: in vivo.
A short description of data set [3]: AUClast in Sprague-Dawley rat at 2 mg/kg, po and 1 mg/kg, iv. The data set is classed as ADME, organism-based. Conditions: in vivo.
Data set [4] can be described thus: Oral bioavailability in Sprague-Dawley rat at 2 mg/kg. Conditions: in vivo. The format is ADME, organism-based.
Data set [5] can be described thus: Cmax in Sprague-Dawley rat at 2 mg/kg, po and 1 mg/kg, iv. The format is ADME, organism-based. Conditions: in vivo.

For `Cc1cc(NC(=O)c2ccc(NS(=O)(=O)CCO)cc2N2C3CCC2CC2(CC2)C3)nc(N2CCC(F)(F)CC2)n1`, the EC50 in data set [1] amounted to 465 nM.

In data set [1], `Cc1cc(NC(=O)c2ccc(NS(=O)(=O)CCO)cc2C2=CCC3(CC2)CC3)nc(N2CC3CC3C2)n1` (stereo not drawn) registered an EC50 of 743 nM.

Turning to `Cc1cc(NC(=O)c2ccc(NS(=O)(=O)CCO)cc2C2=CCC3(CC2)CC3)nc(C2CCC(F)(F)CC2)n1`, the EC50 in data set [1] is 186 nM.

In the case of `Cc1cc(NC(=O)c2ccc(NS(=O)(=O)CCO)cc2C2=CCN(C)CC2)nc(N2CCC(F)(F)CC2)n1`, in data set [1], the EC50 was > 10000 nM.

For `Cc1cc(NC(=O)c2ccc(NS(=O)(=O)CCO)cc2C2CCC3(CC2)CC3)nc(N2CCC(F)(F)CC2)n1`, it took 1360 nM to reach a half-maximal effect in data set [1] (EC50).

As for `Cc1cc(NC(=O)c2ccc(NS(=O)(=O)CCO)cc2C2=CCC3(CC2)CC3)nc(N2CCCC2)n1`, in data set [1], the EC50 amounted to 577 nM.

Regarding `Cc1cc(NC(=O)c2ccc(NS(=O)(=O)CCO)cc2NC2CCCCC2)nc(N2CCC(F)(F)CC2)n1`, in data set [1], the concentration for a half-maximal effect (EC50) is > 10000 nM.

As for `O=C(Nc1cccc(N2CCC(F)(F)CC2)n1)c1ccc(NS(=O)(=O)CCO)cc1C1=CCC2(CC1)CC2`, the half-life in data set [2] is 132 min. The compound also displayed an AUC(0-t) in data set [3] of 1340 ng·h/mL. This compound also came in with an EC50 in data set [1] of 18.2 nM. Further, the bioavailability in data set [4] turned out to be 40.4%. Also, the Cmax in data set [5] was found to be 285 ng/mL.

`Cc1cc(NC(=O)c2ccc(NS(=O)(=O)CCO)cc2-c2cnn(C)c2)nc(N2CCC(F)(F)CC2)n1`: the EC50 in data set [1] is > 10000 nM.

In data set [1], `Cc1cc(NC(=O)c2ccc(NS(=O)(=O)CCO)cc2N2C3CCCC2CC3)nc(N2CCC(F)(F)CC2)n1` showed an EC50 of 665 nM.

In data set [2], `O=C(Nc1ccc(F)c(N2CCC(F)(F)CC2)n1)c1ccc(NS(=O)(=O)CCO)cc1C1=CCC2(CC1)CC2` showed a half-life of 282 min. In addition, the AUC(0-t) in data set [3] amounted to 3400 ng·h/mL. Also, in data set [1], a half-maximal effect (EC50) was put at 40.5 nM. The bioavailability in data set [4] is 67.9%. Besides, the Cmax in data set [5] worked out at 424 ng/mL.

As for `O=C(Nc1ccnc(N2CCC(F)(F)CC2)c1F)c1ccc(NS(=O)(=O)CCO)cc1C1=CCC2(CC1)CC2`, the EC50 in data set [1] was found to be 206 nM.

For `Cc1cc(NC(=O)c2ccc(NS(=O)(=O)CCO)cc2C2=CCC3(CC2)CC3)nc(N2CC(F)(F)C2)n1`, the response in data set [1] was half-maximal at 138 nM (EC50).

In turn, `Cc1cc(NC(=O)c2ccc(NS(=O)(=O)CCO)cc2N2CC3CC3C2)nc(N2CCC(F)(F)CC2)n1` (stereo not drawn) had an EC50 in data set [1] of 2090 nM.

In the case of `O=C(Nc1ccnc(N2CCC(F)(F)CC2)c1)c1ccc(NS(=O)(=O)CCO)cc1C1=CCC2(CC1)CC2`, in data set [1], the concentration giving a half-maximal response (EC50) was 1630 nM.

`O=C(Nc1cncc(N2CCC(F)(F)CC2)n1)c1ccc(NS(=O)(=O)CCO)cc1C1=CCC2(CC1)CC2` gave a half-life in data set [2] of 72 min. The compound also showed an AUC(0-t) in data set [3] of 322 ng·h/mL. Further, in data set [1], the EC50 worked out at 16.5 nM. Also, the bioavailability in data set [4] stood at 22.9%. The compound further returned a Cmax in data set [5] of 140 ng/mL.
